Experimental data as given in patent US9783552B2, “Soluble guanylate cyclase activators” (MERCK SHARP & DOHME CORP., priority 2013, dated 2017).

Assays:
sGC α1/β1 heterodimer = target: T1, sGC α1/β1 heterodimer (Homo sapiens, UniProt Q02108+Q02153); assay: Cell-Based sGC Functional Assay (CASA Assay); settings: CHO-K1/sGC cells; for EC50: intracellular cGMP by HTRF, 1 hr at 37° C., IP from 4P fit, presence or absence of 1 μM DETA-NO not given; for Emax: cGMP as percentage of maximum cGMP production of Compound A (=100% activation), read-out: % ACT (percent activation)
T1 construct: expressed in transfected cells
T1 sequence (Q02108 1-690): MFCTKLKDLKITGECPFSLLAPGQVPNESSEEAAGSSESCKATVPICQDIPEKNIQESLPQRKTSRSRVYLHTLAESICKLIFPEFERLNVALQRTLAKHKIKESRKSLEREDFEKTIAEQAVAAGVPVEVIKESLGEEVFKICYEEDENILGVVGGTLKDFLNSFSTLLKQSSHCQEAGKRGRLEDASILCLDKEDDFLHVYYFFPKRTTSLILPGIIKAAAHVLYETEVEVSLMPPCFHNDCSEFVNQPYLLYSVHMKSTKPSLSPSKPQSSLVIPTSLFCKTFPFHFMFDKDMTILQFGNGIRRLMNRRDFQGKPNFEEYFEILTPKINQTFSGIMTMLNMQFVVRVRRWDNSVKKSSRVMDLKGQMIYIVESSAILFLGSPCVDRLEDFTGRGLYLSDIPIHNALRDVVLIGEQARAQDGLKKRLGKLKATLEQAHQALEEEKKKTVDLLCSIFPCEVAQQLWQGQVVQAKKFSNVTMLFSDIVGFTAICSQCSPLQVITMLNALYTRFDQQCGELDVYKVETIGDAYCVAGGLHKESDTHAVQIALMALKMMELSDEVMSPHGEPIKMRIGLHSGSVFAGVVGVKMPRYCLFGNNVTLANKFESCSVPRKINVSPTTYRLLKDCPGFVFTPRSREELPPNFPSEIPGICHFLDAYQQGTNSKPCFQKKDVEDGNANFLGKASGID
T1 sequence (Q02153 1-619): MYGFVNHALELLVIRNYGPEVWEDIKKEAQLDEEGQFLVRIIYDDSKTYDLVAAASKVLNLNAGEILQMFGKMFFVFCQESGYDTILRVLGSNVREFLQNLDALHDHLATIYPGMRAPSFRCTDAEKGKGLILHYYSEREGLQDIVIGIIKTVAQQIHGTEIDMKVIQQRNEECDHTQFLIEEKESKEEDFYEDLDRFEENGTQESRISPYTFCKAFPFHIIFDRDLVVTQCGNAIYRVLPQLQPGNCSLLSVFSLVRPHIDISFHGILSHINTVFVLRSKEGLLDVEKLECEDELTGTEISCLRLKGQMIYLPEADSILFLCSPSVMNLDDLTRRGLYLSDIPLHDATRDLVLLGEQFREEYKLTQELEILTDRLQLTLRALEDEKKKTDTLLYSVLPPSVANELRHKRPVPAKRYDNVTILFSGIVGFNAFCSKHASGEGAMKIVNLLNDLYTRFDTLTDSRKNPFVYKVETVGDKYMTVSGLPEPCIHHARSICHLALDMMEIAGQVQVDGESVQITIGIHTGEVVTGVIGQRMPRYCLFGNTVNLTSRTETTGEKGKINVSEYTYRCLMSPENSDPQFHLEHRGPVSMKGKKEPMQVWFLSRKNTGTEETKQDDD
Procedure, shortened: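 CHO-K1 cells stably expressing human sGC α1/β1 were incubated with compound (2.5% DMSO) for 1 hr at 37 °C with 0.5 mM IBMX, with or without 1 μM DETA-NO. Intracellular cGMP was measured by HTRF and expressed as % of the maximal cGMP produced by a reference sGC heme-dependent activator. IP and maximum fold induction came from a 4-parameter fit.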

[1] = test system: Spontaneously hypertensive rats (SHR); assay: Acute Efficacy in Spontaneously Hypertensive Rats (SHR); format: in vivo, rat; settings: single oral gavage
Text: Acute Efficacy in Spontaneously Hypertensive Rats (SHR)
Spontaneously hypertensive rats (SHR, male, Charles River) were implanted with DSI TA 11PA-C40 telemetry device (Data Sciences, Inc., St. Paul, Minn.) under isoflurane or ketamine/metomidine anesthesia. The telemetry unit catheter was inserted into the descending aorta via the femoral artery and the telemetry device was implanted subcutaneously in the left flank area. Animals were allowed to recover from surgery for 14 days before the start of any studies. Blood pressure, heart rate, and activity signals from conscious, freely moving rats were recorded continuously for 30 seconds every 10 min. On the day prior to administration of compound, a single oral dose of vehicle (10% transcutol/20% Cremophor/70% water) was administered to all animals to establish baseline control data. The blood pressure lowering efficacy of compound (PO) or vehicle was evaluated following a single oral gavage. Data were collected as hourly averages, and changes in blood pressure were calculated by subtracting control baseline data on an hourly basis. Animals were maintained on normal diet with a 12 h light-dark cycle.
Maximum peak decreases of systolic blood pressure (SBP) in SHR at a particular P.O. dose (mpk milligrams per kilogram) for the following Example compounds are provided. Category A=SBP in SHRs<25 mmHg; Category B=SBP in SHRs 25-40 mmHg; Category C=SBP in SHRs>40 mmHg.

In the case of [2H]C([2H])([2H])n1ncc2c(-c3nc(N)c4c(n3)NC(=O)C4(C)C(=O)NC3CC3)nc(CCC(F)(F)C(F)(F)F)nc21 (single isomer, unassigned) [Example 32, 4-Amino-N-cyclopropyl-5-methyl-2-(6-(3,3,4,4,4-pentafluorobutyl)-1-trideuteriomethyl-1H-pyrazolo[3,4-d]pyrimidin-4-yl)-6-oxo-6,7-dihydro-5H-pyrrolo[2,3-d]pyrimidine-5-carboxamide], the EC50 (sGC α1/β1 heterodimer) is reported as 52 nM, the Emax (sGC α1/β1 heterodimer) is reported as 131% and the “Maximum peak decrease of systolic blood pressure (SBP) in SHR, Category” value (from here on “Maximum peak decrease”) ([1]; Dose 1 mpk P.O.) is reported as “A (Category A=SBP in SHRs<25 mmHg)”.
For [2H]C([2H])([2H])n1ncc2c(-c3nc(N)c4c(n3)NC(=O)C4(C)c3ccc(F)cc3)nc(CCC(F)(F)C(F)(F)F)nc21 (single isomer, unassigned) [Example 2, 4-Amino-5-(4-fluorophenyl)-5-methyl-2-(6-(3,3,4,4,4-pentafluorobutyl)-1-trideuteriomethyl-1H-pyrazolo[3,4-d]pyrimidin-4-yl)-5H-pyrrolo[2,3-d]pyrimidin-6(7H)-one], the EC50 (sGC α1/β1 heterodimer) was 32 nM, the Emax (sGC α1/β1 heterodimer) was 97% and the “Maximum peak decrease” value ([1]; Dose 1 mpk P.O.) was “C (Category C=SBP in SHRs>40 mmHg)”.
CCn1ncc2c(-c3nc(N)c4c(n3)NC(=O)C4(C)c3ccccc3)nc(CCC(F)(F)C(F)(F)F)nc21 (single isomer, unassigned) [Example 7, 4-Amino-2-(1-ethyl-6-(3,3,4,4,4-pentafluorobutyl)-1H-pyrazolo[3,4-d]pyrimidin-4-yl)-5-methyl-5-phenyl-5H-pyrrolo[2,3-d]pyrimidin-6(7H)-one] was tested, and the EC50 (sGC α1/β1 heterodimer) was 85 nM, the Emax (sGC α1/β1 heterodimer) was 110% and the “Maximum peak decrease” value ([1]; Dose 3 mpk P.O.) was “B (Category B=SBP in SHRs 25-40 mmHg)”.
[2H]C([2H])([2H])n1ncc2c(-c3nc(N)c4c(n3)NC(=O)C4(C(=O)NC3CC3)C3CC3)nc(CCC(F)(F)C(F)(F)F)nc21 (single isomer, unassigned) [Example 28, 4-Amino-N,5-dicyclopropyl-2-(6-(3,3,4,4,4-pentafluorobutyl)-1-trideuteriomethyl-1H-pyrazolo[3,4-d]pyrimidin-4-yl)-6-oxo-6,7-dihydro-5H-pyrrolo[2,3-d]pyrimidine-5-carboxamide] was tested, and the EC50 (sGC α1/β1 heterodimer) was 53 nM, the Emax (sGC α1/β1 heterodimer) was 112% and the “Maximum peak decrease” value ([1]; Dose 1 mpk P.O.) was “C (Category C=SBP in SHRs>40 mmHg)”.
With [2H]C([2H])([2H])n1ncc2c(-c3nc(N)c4c(n3)NC(=O)C4(C)C)nc(CCC(F)(F)C(F)(F)F)nc21 [Example 12, 4-Amino-5,5-dimethyl-2-(6-(3,3,4,4,4-pentafluorobutyl)-1-trideuteriomethyl-1H-pyrazolo[3,4-d]pyrimidin-4-yl)-5H-pyrrolo[2,3-d]pyrimidin-6(7H)-one] the EC50 (sGC α1/β1 heterodimer) was 285 nM, the Emax (sGC α1/β1 heterodimer) was 75% and the “Maximum peak decrease” value ([1]; Dose 1 mpk P.O.) was “B (Category B=SBP in SHRs 25-40 mmHg)”.
With [2H]C([2H])([2H])n1nnc2c(-c3nc(N)c4c(n3)NC(=O)C4(C)c3ccc(Cl)cc3F)nc(CCC(F)(F)C(F)(F)F)nc21 (single isomer, unassigned) [Example 73, 4-Amino-5-(4-chloro-2-fluorophenyl)-5-methyl-2-(5-(3,3,4,4,4-pentafluorobutyl-3-trideuteriomethyl)-3H-[1,2,3]triazolo[4,5-d]pyrimidin-7-yl)-5H-pyrrolo[2,3-d]pyrimidin-6(7H)-one] the EC50 (sGC α1/β1 heterodimer) was 429 nM, the Emax (sGC α1/β1 heterodimer) was 97% and the “Maximum peak decrease” value ([1]; Dose 3 mpk P.O.) was “A (Category A=SBP in SHRs<25 mmHg)”.
With [2H]C([2H])([2H])n1nnc2c(-c3nc(N)c4c(n3)NC(=O)C4(c3ccc(F)cc3)C3CC3)nc(CCC(F)(F)C(F)(F)F)nc21 (single isomer, unassigned) [Example 69, 4-Amino-5-cyclopropyl-5-(4-fluorophenyl)-2-(5-(3,3,4,4,4-pentafluorobutyl-3-trideuteriomethyl)-3H-[1,2,3]triazolo[4,5-d]pyrimidin-7-yl)-5H-pyrrolo[2,3-d]pyrimidin-6(7H)-one] the EC50 (sGC α1/β1 heterodimer) was 1140 nM, the Emax (sGC α1/β1 heterodimer) was 98% and the “Maximum peak decrease” value ([1]; Dose 3 mpk P.O.) was “B (Category B=SBP in SHRs 25-40 mmHg)”.
Cn1ncc2c(-c3nc(N)c4c(n3)NC(=O)C4(C)c3ccccc3)nc(CCC(F)(F)C(F)(F)F)nc21 (single isomer, unassigned) [Example 1, 4-Amino-5-methyl-2-(1-methyl-6-(3,3,4,4,4-pentafluorobutyl)-1H-pyrazolo[3,4-d]pyrimidin-4-yl)-5-phenyl-5H-pyrrolo[2,3-d]pyrimidin-6(7H)-one] was tested, and the EC50 (sGC α1/β1 heterodimer) was 40 nM, the Emax (sGC α1/β1 heterodimer) was 101% and the “Maximum peak decrease” value ([1]; Dose 1 mpk P.O.) was “C (Category C=SBP in SHRs>40 mmHg)”.
With Cn1ccc2c(-c3nc(N)c4c(n3)NC(=O)C4(C)c3ccc(F)cc3)nc(CCC(F)(F)C(F)(F)F)nc21 (single isomer, unassigned) [Example 61, 4-Amino-5-(4-fluorophenyl)-5,7′-dimethyl-2′-(3,3,4,4,4-pentafluorobutyl)-5H,7′H-[2,4′-bipyrrolo[2,3-d]pyrimidin]-6(7H)-one] the EC50 (sGC α1/β1 heterodimer) was 61 nM, the Emax (sGC α1/β1 heterodimer) was 91% and the “Maximum peak decrease” value ([1]; Dose 1 mpk P.O.) was “A (Category A=SBP in SHRs<25 mmHg)”.
Cn1ncc2c(-c3nc(N)c4c(n3)NC(=O)C4(C)c3ccc(F)cc3)nc(CCC(F)(F)C(F)(F)F)nc21 (single isomer, unassigned) [Example 9, 4-Amino-5-(4-fluorophenyl)-5-methyl-2-(1-methyl-6-(3,3,4,4,4-pentafluorobutyl)-1H-pyrazolo[3,4-d]pyrimidin-4-yl)-5H-pyrrolo[2,3-d]pyrimidin-6(7H)-one] was tested, and the EC50 (sGC α1/β1 heterodimer) was 46 nM, the Emax (sGC α1/β1 heterodimer) was 110% and the “Maximum peak decrease” value ([1]; Dose 1 mpk P.O.) was “C (Category C=SBP in SHRs>40 mmHg)”.
In the case of Cn1ncc2c(-c3nc(N)c4c(n3)NC(=O)C4(C)C(=O)NC3CC3)nc(CCC(F)(F)C(F)(F)F)nc21 (single isomer, unassigned) [Example 31, 4-Amino-N-cyclopropyl-5-methyl-2-(1-methyl-6-(3,3,4,4,4-pentafluorobutyl)-1H-pyrazolo[3,4-d]pyrimidin-4-yl)-6-oxo-6,7-dihydro-5H-pyrrolo[2,3-d]pyrimidine-5-carboxamide], the EC50 (sGC α1/β1 heterodimer) is reported as 190 nM, the Emax (sGC α1/β1 heterodimer) is reported as 132% and the “Maximum peak decrease” value ([1]; Dose 0.3 mpk P.O.) is reported as “B (Category B=SBP in SHRs 25-40 mmHg)”.
Cn1ncc2c(-c3nc(N)c4c(n3)NC(=O)C4(C)c3ccc(F)cc3)nc(Cc3cccc(F)c3F)nc21 (single isomer, unassigned) [Example 6, 4-Amino-2-(6-(2,3-difluorobenzyl)-1-methyl-1H-pyrazolo[3,4-d]pyrimidin-4-yl)-5-(4-fluorophenyl)-5-methyl-5H-pyrrolo[2,3-d]pyrimidin-6(7H)-one] was tested, and the EC50 (sGC α1/β1 heterodimer) was 157 nM, the Emax (sGC α1/β1 heterodimer) was 127% and the “Maximum peak decrease” value ([1]; Dose 3 mpk P.O.) was “A (Category A=SBP in SHRs<25 mmHg)”.
